Assay results from ChEMBL document CHEMBL2440080, “Synthesis and biological evaluation of novel acylhydrazone derivatives as potential antitumor agents” (Bioorg Med Chem, 2013).

Legend:
Type in all cases: functional
[1] = Cytotoxicity against human EKVX cells after 48 hrs by sulforhodamine B assay
[2] = tested on: TK-10; assay: Cytotoxicity against human TK10 cells after 48 hrs by sulforhodamine B assay; details: TK-10, 48 h
[3] = tested on: SF-539; assay: Cytotoxicity against human SF539 cells after 48 hrs by sulforhodamine B assay; details: SF-539, 48 h
[4] = tested on: SR; assay: Cytotoxicity against human SR cells after 48 hrs by sulforhodamine B assay
[5] = tested on: U-251; assay: Cytotoxicity against human U251 cells after 48 hrs by sulforhodamine B assay; details: U-251, 48 h
[6] = tested on: RXF 393; assay: Cytotoxicity against human RXF393 cells after 48 hrs by sulforhodamine B assay; details: RXF 393, 48 h
[7] = tested on: SNB-19; assay: Cytotoxicity against human SNB19 cells after 48 hrs by sulforhodamine B assay; details: SNB-19, 48 h
[8] = tested on: UACC-62; assay: Cytotoxicity against human UACC62 cells after 48 hrs by sulforhodamine B assay; details: UACC-62, 48 h
[9] = tested on: DU-145; assay: Cytotoxicity against human DU145 cells after 48 hrs by sulforhodamine B assay; details: DU-145, 48 h
[10] = tested on: HOP-62; assay: Cytotoxicity against human HOP62 cells after 48 hrs by sulforhodamine B assay; details: HOP-62, 48 h
[11] = tested on: OVCAR-4; assay: Cytotoxicity against human OVCAR4 cells after 48 hrs by sulforhodamine B assay; details: OVCAR-4, 48 h
[12] = tested on: UO-31; assay: Cytotoxicity against human UO31 cells after 48 hrs by sulforhodamine B assay; details: UO-31, 48 h
[13] = tested on: RPMI-8226; assay: Cytotoxicity against human RPMI8226 cells after 48 hrs by sulforhodamine B assay; details: RPMI-8226, 48 h
[14] = tested on: LOX IMVI; assay: Cytotoxicity against human LOXIMVI cells after 48 hrs by sulforhodamine B assay
[15] = tested on: SN12C; assay: Cytotoxicity against human SN12C cells after 48 hrs by sulforhodamine B assay
[16] = tested on: NCI-H322M; assay: Cytotoxicity against human NCI-H322M cells after 48 hrs by sulforhodamine B assay
[17] = tested on: A498; assay: Cytotoxicity against human A498 cells after 48 hrs by sulforhodamine B assay; details: A498, 48 h
[18] = tested on: Malme-3M; assay: Cytotoxicity against human MALME-3M cells after 48 hrs by sulforhodamine B assay
[19] = tested on: PC-3; assay: Cytotoxicity against human PC3 cells after 48 hrs by sulforhodamine B assay; details: PC-3, 48 h
[20] = tested on: HL-60(TB); assay: Cytotoxicity against human HL-60(TB) cells after 48 hrs by sulforhodamine B assay; details: HL-60, 48 h
[21] = tested on: SNB-75; assay: Cytotoxicity against human SNB75 cells after 48 hrs by sulforhodamine B assay; details: SNB-75, 48 h
[22] = tested on: HOP-92; assay: Cytotoxicity against human HOP92 cells after 48 hrs by sulforhodamine B assay; details: HOP-92, 48 h
[23] = tested on: SW-620; assay: Cytotoxicity against human SW620 cells after 48 hrs by sulforhodamine B assay; details: SW-620, 48 h
[24] = tested on: CCRF-CEM; assay: Cytotoxicity against human CCRF-CEM cells after 48 hrs by sulforhodamine B assay
[25] = tested on: 786-0; assay: Cytotoxicity against human 786-0 cells after 48 hrs by sulforhodamine B assay; details: 786-0, 48 h
[26] = tested on: A549; assay: Cytotoxicity against human A549/ATCC cells after 48 hrs by sulforhodamine B assay; details: A549, 48 h
[27] = tested on: SK-MEL-5; assay: Cytotoxicity against human SK-MEL-5 cells after 48 hrs by sulforhodamine B assay; details: SK-MEL-5, 48 h
[28] = tested on: MDA-MB-435; assay: Cytotoxicity against human MDA-MB-435 cells after 48 hrs by sulforhodamine B assay; details: MDA-MB-435, 48 h
[29] = tested on: IGROV-1; assay: Cytotoxicity against human IGROV1 cells after 48 hrs by sulforhodamine B assay; details: IGROV-1, 48 h
[30] = tested on: CAKI-1; assay: Cytotoxicity against human CAKI-1 cells after 48 hrs by sulforhodamine B assay; details: CAKI-1, 48 h
[31] = tested on: MDA-MB-231; assay: Cytotoxicity against human MDA-MB-231 cells after 48 hrs by sulforhodamine B assay; details: MDA-MB-231, 48 h
[32] = Cytotoxicity against human Hs 578T cells after 48 hrs by sulforhodamine B assay
[33] = tested on: ACHN; assay: Cytotoxicity against human ACHN cells after 48 hrs by sulforhodamine B assay
[34] = tested on: SK-OV-3; assay: Cytotoxicity against human SKOV3 cells after 48 hrs by sulforhodamine B assay; details: SK-OV-3, 48 h
[35] = tested on: UACC-257; assay: Cytotoxicity against human UACC257 cells after 48 hrs by sulforhodamine B assay; details: UACC-257, 48 h
[36] = tested on: NCI-H23; assay: Cytotoxicity against human NCI-H23 cells after 48 hrs by sulforhodamine B assay; details: NCI-H23, 48 h
[37] = tested on: K562; assay: Cytotoxicity against human K562 cells after 48 hrs by sulforhodamine B assay; details: K562, 48 h
[38] = tested on: T47D; assay: Cytotoxicity against human T47D cells after 48 hrs by sulforhodamine B assay
[39] = tested on: NCI-H522; assay: Cytotoxicity against human NCI-H522 cells after 48 hrs by sulforhodamine B assay; details: NCI-H522, 48 h
[40] = tested on: OVCAR-5; assay: Cytotoxicity against human OVCAR5 cells after 48 hrs by sulforhodamine B assay; details: OVCAR-5, 48 h
[41] = tested on: OVCAR-8; assay: Cytotoxicity against human OVCAR8 cells after 48 hrs by sulforhodamine B assay; details: OVCAR-8, 48 h
[42] = tested on: HT-29; assay: Cytotoxicity against human HT-29 cells after 48 hrs by sulforhodamine B assay; details: HT-29, 48 h
[43] = tested on: SK-MEL-2; assay: Cytotoxicity against human SK-MEL-2 cells after 48 hrs by sulforhodamine B assay; details: SK-MEL-2, 48 h
[44] = tested on: HCT-116; assay: Cytotoxicity against human HCT116 cells after 48 hrs by sulforhodamine B assay; details: HCT-116, 48 h
[45] = tested on: HCT-15; assay: Cytotoxicity against human HCT15 cells after 48 hrs by sulforhodamine B assay; details: HCT-15, 48 h
[46] = tested on: M14; assay: Cytotoxicity against human M14 cells after 48 hrs by sulforhodamine B assay; details: M14, 48 h
[47] = tested on: SF-295; assay: Cytotoxicity against human SF295 cells after 48 hrs by sulforhodamine B assay; details: SF-295, 48 h
[48] = tested on: NCI-H226; assay: Cytotoxicity against human NCI-H226 cells after 48 hrs by sulforhodamine B assay; details: NCI-H226, 48 h
[49] = tested on: OVCAR-3; assay: Cytotoxicity against human OVCAR3 cells after 48 hrs by sulforhodamine B assay; details: OVCAR-3, 48 h
[50] = tested on: MCF7; assay: Cytotoxicity against human MCF7 cells after 48 hrs by sulforhodamine B assay; details: MCF7, 48 h
[51] = tested on: COLO 205; assay: Cytotoxicity against human COLO205 cells after 48 hrs by sulforhodamine B assay; details: COLO 205, 48 h
[52] = tested on: KM12; assay: Cytotoxicity against human KM12 cells after 48 hrs by sulforhodamine B assay; details: KM12, 48 h
[53] = tested on: MOLT-4; assay: Cytotoxicity against human MOLT4 cells after 48 hrs by sulforhodamine B assay; details: MOLT-4, 48 h
[54] = tested on: BT-549; assay: Cytotoxicity against human BT549 cells after 48 hrs by sulforhodamine B assay; details: BT-549, 48 h
[55] = tested on: SF-268; assay: Cytotoxicity against human SF268 cells after 48 hrs by sulforhodamine B assay; details: SF-268, 48 h
[56] = tested on: HCC 2998; assay: Cytotoxicity against human HCC2998 cells after 48 hrs by sulforhodamine B assay; details: HCC 2998, 48 h
[57] = tested on: SK-MEL-28; assay: Cytotoxicity against human SK-MEL-28 cells after 48 hrs by sulforhodamine B assay; details: SK-MEL-28, 48 h
[58] = tested on: NCI-H460; assay: Cytotoxicity against human NCI-H460 cells after 48 hrs by sulforhodamine B assay; details: NCI-H460, 48 h
[59] = tested on: NCI/ADR-RES; assay: Cytotoxicity against human NCI/ADR-RES cells after 48 hrs by sulforhodamine B assay

CCN(CC)c1ccc(/C=N/NC(=O)c2ccc(Nc3ccnc(C(F)(F)F)c3)cc2)c(O)c1
GI50 [1]: 195 nM | GI50 [2]: 501 nM | GI50 [3]: 200 nM | GI50 [4]: 251 nM | GI50 [5]: 200 nM | GI50 [6]: 200 nM | GI50 [7]: 331 nM | GI50 [8]: 251 nM | GI50 [9]: 501 nM | GI50 [10]: 251 nM | GI50 [11]: 251 nM | GI50 [12]: 57.5 nM | GI50 [13]: 126 nM | GI50 [14]: 158 nM | GI50 [15]: 363 nM | GI50 [16]: 316 nM | GI50 [17]: 316 nM | GI50 [18]: 389 nM | GI50 [19]: 501 nM | GI50 [20]: 251 nM | GI50 [21]: 200 nM | GI50 [22]: 676 nM | GI50 [23]: 339 nM | GI50 [24]: 120 nM | GI50 [25]: 182 nM | GI50 [26]: 331 nM | GI50 [27]: 324 nM | GI50 [28]: 490 nM | GI50 [29]: 200 nM | GI50 [30]: 251 nM | GI50 [31]: 398 nM | GI50 [32]: 219 nM | GI50 [33]: 158 nM | GI50 [34]: 234 nM | GI50 [35]: 339 nM | GI50 [36]: 417 nM | GI50 [37]: 66.1 nM | GI50 [38]: 331 nM | GI50 [39]: 251 nM | GI50 [40]: 479 nM | GI50 [41]: 398 nM | GI50 [42]: 282 nM | GI50 [43]: 398 nM | GI50 [44]: 158 nM | GI50 [45]: 100 nM | GI50 [46]: 316 nM | GI50 [47]: 263 nM | GI50 [48]: 331 nM | GI50 [49]: 316 nM | GI50 [50]: 295 nM | GI50 [51]: 275 nM | GI50 [52]: 398 nM | GI50 [53]: 162 nM | GI50 [54]: 501 nM | GI50 [55]: 200 nM | GI50 [56]: 224 nM | GI50 [57]: 204 nM | GI50 [58]: 204 nM | GI50 [59]: 1000 nM
